The conditions of data set [1]: cited from earlier work.
Data set [2] is described as follows: USP II dissolution test of NCMPs in deionized water. The class given is physicochemical. As to the method:
Dissolution tests were carried out in a standard USP II apparatus with about 50 rpm paddle speed. A sample of NCMPs (n=6) containing about 8.9 mg GF were dissolved in about 1000 ml deionized water at about 37° C., and samples taken from the vessel were syringe-filtered (0.1 μm filter) and assayed via UV spectroscopy. Unlike in the re-dispersion test, the use of a large amount of water ensures substantially full solubilization of the drug in this test.

The nature of data set [3]: Particle size of as-received / dry powders (Rodos/Helos laser diffraction where stated). In kind it is physicochemical. The note with it: as-received or dry. How it is done:
The particle sizes of GF suspensions after milling in Runs 2, 3, and 5 (about 10% GF/about 2.5% HPC) indicate that the milling results were fairly reproducible. […] The dry particle size of CCS, as measured by Rodos/Helos laser diffraction system, was D10: 12.90 μm, D50: 28.55 μm, and D90: 66.09 The particle size increased to D10:13.74 μm, D50: 63.68 μm and D90: 96.28 μm after about 3 h swelling in de-ionized water as measured by Coulter LS13320 with the liquid module.
The suspensions were coated onto Pharmatose® carrier particles in the fluidized bed processor. The particle size statistics of Pharmatose® as measured by Rodos is D10: 58 μm, D50: 116 μm and D90: 206 μm. The median particle size of Pharmatose® increased from about 116 μm to about 120-150 μm due to coating and some agglomeration.

Regarding `OC[C@@H](O)[C@@H](O)[C@H](O)[C@H](O)CO` [Mannitol], the solubility in water result in data set [1] (water) was “about 180 g/L”.
With `COC1=CC(=O)C[C@@H](C)[C@]12Oc1c(Cl)c(OC)cc(OC)c1C2=O` [GF, griseofulvin], the “GF dissolved in about 60 min” value in data set [2] is “about 14%”. In data set [3], the “particle size D10 of as-received / dry powder” value was determined as 3.9 μm, the “particle size D50 of as-received / dry powder” value is 16.0 μm and the “particle size D90 of as-received / dry powder” value is recorded as 47.4 μm. For the same compound, the solubility in methanol result in data set [1] (methanol, about 25° C.) is “about 30 mg/ml”.
